Measured values from patent US6514911B1, “Substituted oxadiazines useful as pesticides” (Uniroyal Chemical Company, Inc., priority 2002, dated 2003).

Experiments:
Format in all cases: in vivo
[1] = test system: tall morningglory (Ipomoea purpurea (L.) Roth) (TM); experiment: Postemergence herbicide test, foliar spray, tall morningglory; conditions: 3000 ppm foliar spray to drip point, treated six days after emergence, two weeks after treatment
Protocol: (§1) To illustrate the effectiveness of the previously described substituted oxadiazines of this invention as preemergence herbicides, 300 mg of the chemical was dissolved in a composition comprising 10 mL acetone to which 30 mg of tile emulsifying agent, ethoxylated sorbitan monolaurate, was added. The solution was diluted to 100 mL with distilled water. Ten milliliters of this 3000 ppm solution was diluted to 250 ppm with distilled water. The chemical was applied at the rate of 10 pounds/acre (11.2 kg/ha) by drenchings 46 mL of the 250 ppm solution on the surface of soil in 4½ inch (11.25 cm) plastic pots wherein seeds of the following weeds had been planted: tall morningglory (Ipomoea purpurea (L.) Roth) (TM), To illustrate the effectiveness of the described substituted oxadiazines as postemergence herbicides, the 3000 ppm solution described under Example 5 was atomized with a conventional DeVilbiss™ sprayer, wetting the foliage to the drip point. The weeds, which were the same species as described in Example 5, were treated six days after emergence. The percent weed control was evaluated two weeks after treatment.

[2] = test system: prickly sida (Sida spinosa L.) (PS); experiment: Postemergence herbicide test, foliar spray, prickly sida; conditions: 3000 ppm foliar spray to drip point, treated six days after emergence, two weeks after treatment
Protocol: as §1, with “41⁄2” for “4½”, “prickly […] spinosa L.) (PS),” for “tall morningglory (Ipomoea purpurea (L.) Roth) (TM),”, “DeVilbissTM” for “DeVilbiss™”

[3] = test system: barnyardgrass (Echinochloa crus-galli (L.) Beauv.) (BG); experiment: Postemergence herbicide test, foliar spray, barnyardgrass; conditions: 3000 ppm foliar spray to drip point, treated six days after emergence, two weeks after treatment
Protocol: as §1, with “barnyardgrass (Echinochloa crus-galli” for “tall morningglory (Ipomoea purpurea”, “Beauv.) (BG), and” for “Roth) (TM),”

[4] = test system: green foxtail (Setaria virdis (L.) Beauv.) (GF); experiment: Postemergence herbicide test, foliar spray, green foxtail; conditions: 3000 ppm foliar spray to drip point, treated six days after emergence, two weeks after treatment
Protocol: as §1, with “41⁄2” for “4½”, “green foxtail (Setaria […].) Beauv.) (GF).” for “tall morningglory (Ipomoea purpurea (L.) Roth) (TM),”, “DeVilbissTM” for “DeVilbiss™”

[5] = test system: prickly sida (Sida spinosa L.) (PS); experiment: Preemergence herbicide test, soil drench, prickly sida; conditions: Sida spinosa, 336 h, 10 lbs/A (11.2 kg/ha) soil drench, two weeks after treatment, vs untreated checks, read-out: Percent Weed Control PS
[6] = test system: velvetleaf (Abutilon theophrasti Medik.) (VL); experiment: Postemergence herbicide test, foliar spray, velvetleaf; conditions: 3000 ppm foliar spray to drip point, treated six days after emergence, two weeks after treatment
Protocol: as §1, with “velvetleaf (Abutilon theophrasti Medik.) (VL),” for “tall morningglory (Ipomoea purpurea (L.) Roth) (TM),”

SMILES	Percent Weed Control TM [1] [%]	Percent Weed Control PS [2] [%]	Percent Weed Control BG [3] [%]	Percent Weed Control GF [4] [%]	pest or weed control at 11208.5 g/ha [5] [%]	Percent Weed Control VL [6] [%]
FC(F)(F)C(F)(F)C1=NC(C(F)(F)F)(C(F)(F)F)N=C(c2ccc(Cl)cc2)O1 [Compound 24, 2-(4-chlorophenyl)-6-(pentafluoroethyl)-4,4-bis(trifluoromethyl)-4H-1,3,5-oxadiazine]	0	100	20	0	100	50
FC(F)(F)C(F)(F)C1=NC(C(F)(F)F)(C(F)(F)F)N=C(c2cccc(Cl)c2)O1 [Compound 13, 2-(3-chlorophenyl)-6-(pentafluoroethyl)-4,4-bis(trifluoromethyl)-4H-1,3,5-oxadiazine]	100	100	80	100	100	100
FC(F)(F)C(F)(F)C1=NC(C(F)(F)F)(C(F)(F)F)N=C(c2ccc(Br)cc2)O1 [Compound 25, 2-(4-bromophenyl)-6-(pentafluoroethyl)-4,4-bis(trifluoromethyl)-4H-1,3,5-oxadiazine]	20	100	50	30	100	100
FC(F)(F)C1=NC(C(F)(F)F)(C(F)(F)F)N=C(c2cccc(Cl)c2)O1 [Compound 4, 2-(3-chlorophenyl)-4,4,6-tris(trifluoromethyl)-4H-1,3,5-oxadiazine]	100	90	100	100	100	50
Fc1ccc(C2=NC(C(F)(F)F)(C(F)(F)F)N=C(C(F)(F)C(F)(F)F)O2)cc1Cl [Compound 20, 2-(3-chloro-4-fluorophenyl)-6-(pentafluoroethyl)-4,4-bis(trifluoromethyl)-4H-1,3,5-oxadiazine]	0	70	30	0	100	70
